Measured values taken from patent US11680047B2, “Enhanced erythropoiesis and iron metabolism” (FibroGen, Inc., priority 2003, dated 2023).
Marks after values point to notes of the source that are not given here.

How the values were obtained:
E-selectin = assay: IL-1β induced E-selectin expression in HUVEC; assay type: cell-based, human; conditions: 1 ng/ml IL-1β, 1 day
Method: To investigate the effect of HIF prolyl hydroxylase inhibition on IL-1β induced E-selectin expression, HUVECs were stimulated with 1 ng/ml IL-1β in the absence or presence of various concentrations of compound B or compound C for 1 day. E-selectin expression was then measured.

VCAM-1 = assay: IL-1β induced VCAM-1 expression in HUVEC; assay type: cell-based, human; conditions: IL-1β 1 ng/ml, 1 day
Method: To investigate the effect of HIF prolyl hydroxylase inhibition on IL-1β induced VCAM-1 expression, HUVEC (human umbilical vein endothelial cells) were stimulated with IL-1β in the absence or presence of various concentrations of compound B or compound C for 1 day. VCAM expression was then measured.

sproutin = assay: Intestinal sproutin mRNA in rats of ACD Series 2 (microarray); assay type: in vivo, rat
Method: (§1) At week 6 following administration of compound A in anemic animals (40 mg/kg, twice a week), microarray analysis was performed to examine expression of genes encoding proteins involved with iron transport and absorption in intestine. Microarray analysis was performed using methods described above, using The Rat Genome 230A array (Affymetirx), which represents all sequence in the Rat Unigene database build 99 (National Center for Biotechnology Information, Bethesda, Md.), including approximately 4,699 well-characterized rat genes and approximately 10,467 EST sequences and approximately 700 non-EST sequences.

[1] = Total serum iron levels in rats treated twice weekly for 93 days; assay type: in vivo, rat
Method: Compounds were generally administered orally by gavage or IV administration. Animals treated by oral gavage received a 4-10 ml/kg volume of either 0.5% carboxymethyl cellulose (CMC; Sigma-Aldrich, St. Louis Mo.) with or without 0.1% Polysorbate 80 (0 mg/kg/day) or varying doses of a compound of the present invention (e.g., a HIF prolyl hydroxylase inhibitor) in 0.5% CMC, with or without 0.1% Polysorbate 80, using various dosing regimens. Blood samples were collected at appropriate intervals during treatment from, e.g., tail vein (rats), or abdominal vein or cardiocentesis (mice or rats). Generally, animals were anesthetized with isoflurane and blood samples were collected into MICROTAINER serum separator tubes (Becton-Dickinson, Franklin Lakes N.J.). For measurement of serum components, the tubes were incubated at room temperature for 30 minutes, and then centrifuged at 8,000 rpm at 4° C. for 10 minutes. The serum fraction was then processed and analyzed for the presence of specific components, e.g., serum iron (assay performed by Quality Clinical Labs, Mountain View, Calif.). For determination of hematocrit, blood samples were collected into MICROTAINER EDTA-2K tubes (Becton-Dickinson); EDTA-blood was then drawn into 75 mm×1.1-1.2 mm I.D. capillary tubes (Chase Scientific Glass, Inc., Rockwood Tenn.) to approximately % length, one end of the tube was sealed with CRITOSEAL sealant (Sherwood Medical Company), and the tubes were centrifuged in a J-503M MICROHEMATOCRIT centrifuge (Jorgensen Laboratories, Inc., Loveland Colo.) at 12,000 rpm for 5 minutes. Hematocrit was read against a reader card. When indicated, complete blood count (CBC) analysis, including blood hemoglobin level, reticulocyte number, and hematocrit, was performed by Quality Clinical Labs (Mountain View, Calif.).
Male and female rats were treated twice weekly (Monday and Thursday) with various concentrations (0, 20, 60, or 150 mg/kg) of compound A for 93 days. Total serum iron levels were determined.

NRAMP2 = assay: Intestinal NRAMP2 mRNA in rats of ACD Series 2 (microarray); assay type: in vivo, rat
Method: as §1

[2] = anemic rats, 40 mg/kg twice a week, week 6

In the case of O=C(O)CNC(=O)c1ncc2cc(Oc3ccccc3)ccc2c1O [Compound B, [(4-Hydroxy-7-phenoxy-isoquinoline-3-carbonyl)-amino]-acetic acid], the “inhibition of IL-1β induced E-selectin expression” value (E-selectin) is reported as “dose-dependent inhibition of IL-1β induced E-selectin expression” and the “inhibition of IL-1β induced VCAM-1 expression” value (VCAM-1) is reported as “does-dependent inhibition of IL-1β induced VCAM-1 expression”.
For O=C(O)CNC(=O)c1nc(Cl)c2ccccc2c1O [Compound A, [(1-Chloro-4-hydroxy-isoquinoline-3-carbonyl)-amino]-acetic acid], the “intestinal expression of sproutin” value (sproutin; [2]) was “increased expression of both NRAMP2 and sproutin in intestine”, the “intestinal expression of mRNA for sproutin” value (sproutin; control rats) was “increased intestinal expression” and the “Serum Iron Female Rats (Mean +/− SD)” value ([1]; 20 mg/kg twice weekly) was 505 +/− 41 * µg/dL. For the same compound, the “Serum Iron Female Rats (Mean +/− SD)” value ([1]; 60 mg/kg twice weekly) was 445 +/− 46 * µg/dL, the “Serum Iron Female Rats (Mean +/− SD)” value ([1]; 150 mg/kg twice weekly) was 399 ± 117 µg/dL and the “Serum Iron Male Rats (Mean +/− SD)” value ([1]; 20 mg/kg twice weekly) was 198 ± 64 µg/dL. The “Serum Iron Male Rats (Mean +/− SD)” value ([1]; 60 mg/kg twice weekly) was 357 +/− 111 * µg/dL, the “Serum Iron Male Rats (Mean +/− SD)” value ([1]; 150 mg/kg twice weekly) was 307 +/− 142 * µg/dL and the “intestinal expression of NRAMP2” value (NRAMP2; [2]) was “increased expression of both NRAMP2 and sproutin in intestine”. The “intestinal expression of mRNA for NRAMP2” value (NRAMP2; control rats) was “increased intestinal expression of mRNA for NRAMP2”.
